Experimental data published in PMC5682218 (European journal of medicinal chemistry, 2017).
Where a name gives a salt, the structure may show the parent alone. Read-outs that look alike come from different tables or passages of the source.

Key:
HIV RT polymerase (pol) = HIV RT polymerase (pol) (Human immunodeficiency virus type 1 group M subtype B, UniProt P03366); experiment: RT polymerase assay; type: biochemical, HIV-1
[1] = target: HIV RT-associated RNase H (Human immunodeficiency virus type 1 group M subtype B, UniProt P03366); experiment: RNH assay: HIV RT-associated RNase H inhibition, HTS-1 RNA/DNA substrate; type: biochemical, HIV-1
P4R5 cells = experiment: Cytotoxicity in cell-based MAGI assay; settings: human
HIV integrase = HIV integrase (Human immunodeficiency virus type 1 group M subtype B, UniProt P03366); experiment: HIV IN assay; type: biochemical
HIV-1 = experiment: MAGI antiviral assay in P4R5 indicator cells; type: cell-based; settings: Human immunodeficiency virus 1, read-out: MAGI Antiviral EC50
[2] = Cytotoxicity in cell-based MAGI assay; settings: human, P4R5 indicator cells (MAGI assay)
[3] = concentration inhibiting the target enzyme by 50%
[4] = read-out: RT IC50 Pol, concentration inhibiting the target enzyme by 50%

Row | Molecule | IC50 (HIV RT polymerase (pol)) | IC50 [1] | other results
1 | O=c1[nH]c2scc(-c3ccc(Cl)cc3)c2c(=O)n1O [Compound 11d, 5-(4-Chlorophenyl)-3-hydroxythieno[2,3-d]pyrimidine-2,4(1H,3H)-dione] | > 10 µM | – | RT IC50 Pol (HIV RT polymerase (pol); [3]): did not inhibit RT polymerase
2 | O=c1[nH]c2sc(-c3ccccc3)cc2c(=O)n1O [Compound 11a, 3-Hydroxy-6-phenylthieno[2,3-d]pyrimidine-2,4(1H,3H)-dione] | > 10 µM | – | –
3 | O=c1[nH]c2cc(-c3ccc(Cl)cc3)ccc2c(=O)n1O [Compound 9b, 7-(4-Chlorophenyl)-3-hydroxyquinazoline-2,4(1H,3H)-dione] | > 10 µM | – | –
4 | O=c1[nH]c2sccc2c(=O)n1O [Compound 11e, 3-Hydroxythieno[2,3-d]pyrimidine-2,4(1H,3H)-dione] | > 10 µM | – | –
5 | O=c1[nH]c2cc(-c3ccc(F)cc3)sc2c(=O)n1O [Compound 10b, 6-(4-Fluorophenyl)-3-hydroxythieno[3,2-d]pyrimidine-2,4(1H,3H)-dione] | > 10 µM | – | –
6 | Cc1sc2[nH]c(=O)n(O)c(=O)c2c1C [Compound 11g, 3-Hydroxy-5,6-dimethylthieno[2,3-d]pyrimidine-2,4(1H,3H)-dione] | > 10 µM | 0.1 ± 0.03 µM | –
7 | O=C1Cc2cc(-c3ccccc3)ccc2C(=O)N1O [Compound 14, 2-Hydroxy-6-phenylisoquinoline-1,3(2H,4H)-dione] | > 10 µM | – | RT IC50 Pol (HIV RT polymerase (pol); [3]): without inhibiting RT pol
8 | 3-Hydroxy-5,6,7,8-tetrahydrobenzo[4, 5]thieno[2,3-d]pyrimidine-2,4(1H,3H)-dione [Compound 11j] | – | – | IC50 (HIV RT polymerase (pol); [4]): > 10 µM; CC50 (P4R5 cells): > 100 µM
9 | O=c1[nH]c2cc(-c3ccccc3)ccc2c(=O)n1O [Compound 9a, 3-Hydroxy-7-phenylquinazoline-2,4(1H,3H)-dione] | > 10 µM | – | fold increase in RNase H inhibition ([1]; vs. compound 14): 6.5 fold; fold decrease in INST inhibition (HIV integrase; vs. compound 14): 5.5 fold
10 | 3-Hydroxy-1,5,6,7-tetrahydro-2H-cyclopenta[4, 5]thieno[2,3-d]pyrimidine-2,4(3H)-dione [Compound 11i] | – | – | IC50 (HIV RT polymerase (pol); [4]): > 10 µM; CC50 (P4R5 cells): > 100 µM
11 | CCN1CCc2c(sc3[nH]c(=O)n(O)c(=O)c23)C1 [Compound 11k, 7-Ethyl-3-hydroxy-5,6,7,8-tetrahydropyrido[4′,3′:4,5]thieno[2,3-d]pyrimidine-2,4(1H,3H)-dione hydrochloride] | > 10 µM | 0.2 ± 0.03 µM | IC50 (HIV integrase): > 100 µM; EC50 (HIV-1): > 20 µM; CC50 at 72 h [2]: > 100 µM
12 | O=c1[nH]c2sc(Cc3ccccc3)cc2c(=O)n1O [Compound 11b, 6-Benzyl-3-hydroxythieno[2,3-d]pyrimidine-2,4(1H,3H)-dione] | > 10 µM | – | –
13 | Cc1c(C(=O)O)sc2[nH]c(=O)n(O)c(=O)c12 [Compound 11h, 3-Hydroxy-5-methyl-2,4-dioxo-1,2,3,4-tetrahydrothieno[2,3-d]pyrimidine-6-carboxylic acid] | > 10 µM | 0.1 ± 0.02 µM | –
14 | O=c1[nH]c2scc(-c3ccccc3)c2c(=O)n1O [Compound 11c, 3-Hydroxy-5-phenylthieno[2,3-d]pyrimidine-2,4(1H,3H)-dione] | > 10 µM | 0.1 ± 0.03 µM | –
15 | O=c1[nH]c2sc3c(c2c(=O)n1O)CCN(Cc1ccccc1)C3 [Compound 11m, 7-Benzyl-3-hydroxy-5,6,7,8-tetrahydropyrido[4′,3′:4,5]thieno[2,3-d]pyrimidine-2,4(1H,3H)-dione hydrochloride] | > 10 µM | 0.1 ± 0.04 µM | IC50 (HIV integrase): 8.3 ± 0.8 µM; EC50 (HIV-1): > 20 µM; CC50 at 72 h [2]: > 100 µM
16 | Cc1csc2[nH]c(=O)n(O)c(=O)c12 [Compound 11f, 3-Hydroxy-5-methylthieno[2,3-d]pyrimidine-2,4(1H,3H)-dione] | > 10 µM | 0.1 ± 0.02 µM | –
17 | O=c1[nH]c2cc(-c3ccccc3)sc2c(=O)n1O [Compound 10a, 3-Hydroxy-6-phenylthieno [3,2-d]pyrimidine-2,4(1H,3H)-dione] | > 10 µM | 0.1 ± 0.06 µM | RT IC50 Pol (HIV RT polymerase (pol); [3]): no RT pol inhibition
18 | O=c1[nH]c2cc(-c3ccc(Cl)cc3)sc2c(=O)n1O [Compound 10c, 6-(4-Chlorophenyl)-3-hydroxythieno[3,2-d]pyrimidine-2,4(1H,3H)-dione] | > 10 µM | – | –
19 | O=c1[nH]c2sc3c(c2c(=O)n1O)CCNC3 [Compound 11l, 3-Hydroxy-5,6,7,8-tetrahydropyrido[4′,3′:4,5]thieno[2,3-d]pyrimidine-2,4(1H,3H)-dione hydrobromide] | > 10 µM | 0.3 ± 0.03 µM | IC50 (HIV integrase): 17 ± 3 µM; EC50 (HIV-1): > 20 µM; CC50 at 72 h [2]: > 100 µM
